Measurements reported in US20040197411A1, “Acceptably non-hygroscopic formulation intermediate comprising a hygroscopic drug” (priority 2002, published 2004).

Test: Moisture sorption analysis by dynamic vapor sorption (DVS)
Assay type: physicochemical
Details: for hygroscopicity and deliquescence: general statement, conditions not given
Protocol: Compound 1 was prepared according to processes described in WO 01/72703. A sample of Compound 1 in substantially dry, amorphous form was subjected to moisture sorption analysis. Dynamic vapor sorption (DVS) was used to determine mass increase (relative to dry mass) was monitored over an adsorption range of 10-70% relative humidity (RH) in increments of 10%. As shown by the moisture sorption isotherm represented in FIG. 1, Compound 1 is hygroscopic.

| hygroscopicity and deliquescence | moisture sorption isotherm (mass increase relative to dry mass) (substantially dry, amorphous form, 10-70% RH in increments of 10%, FIG. 1) | Structure (SMILES) |
| --- | --- | --- |
| extremely hygroscopic and deliquescent |  | CC(=N)NCCSC[C@](C)(N)C(=O)O [S-[2-[(1-iminoethyl)amino]ethyl]-2-methyl-L-cysteine] |
| extremely hygroscopic and deliquescent | hygroscopic | CC(=N)NCCSC[C@](C)(N)C(=O)O.Cl.Cl [Compound 1, S-[2-[(1-iminoethyl)amino]ethyl]-2-methyl-L-cysteine dihydrochloride] |
